The values below come from patent publication US7122558B2 (priority 2000, dated 2006).

Structures can show the parent of a compound that is named as a salt.

The target of this experiment is T1, human muscarinic receptors M3 (Homo sapiens, UniProt P20309).
T1 construct: expressed in transfected cells; host or cells: CHO-K1 (chinese hamster ovary-K1), stably transfected; membrane preparations
Description: biochemical. The class given is binding. As to conditions: for inhibition at 0.1 µM: read-out: % INHIBITION concentration: 1.00E−07 M; for inhibition at 0.01 µM: read-out: % INHIBITION concentration: 1.00E−08 M.

T1 sequence (P20309 whole entry): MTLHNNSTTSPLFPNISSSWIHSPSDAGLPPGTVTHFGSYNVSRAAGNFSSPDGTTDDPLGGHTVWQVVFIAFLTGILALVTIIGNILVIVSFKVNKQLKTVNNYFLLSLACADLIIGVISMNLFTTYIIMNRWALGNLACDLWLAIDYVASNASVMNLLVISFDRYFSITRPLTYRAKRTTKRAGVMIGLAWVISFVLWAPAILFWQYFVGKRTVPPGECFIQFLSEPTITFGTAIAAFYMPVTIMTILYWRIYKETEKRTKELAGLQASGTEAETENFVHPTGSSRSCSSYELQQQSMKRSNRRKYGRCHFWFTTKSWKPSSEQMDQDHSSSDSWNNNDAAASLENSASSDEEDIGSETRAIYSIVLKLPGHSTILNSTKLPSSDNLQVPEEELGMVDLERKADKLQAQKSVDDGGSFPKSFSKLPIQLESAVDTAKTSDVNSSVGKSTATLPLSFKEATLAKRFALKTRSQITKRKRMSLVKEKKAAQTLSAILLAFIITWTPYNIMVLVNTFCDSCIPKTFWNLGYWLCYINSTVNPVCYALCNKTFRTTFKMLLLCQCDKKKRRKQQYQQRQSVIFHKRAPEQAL

With `Cc1ccccc1OCCC[N+]12CCC(CC1)[C@@H](OC(=O)[C@](O)(c1cccs1)C1CCCC1)C2` [Example 33, (3R)-3-[(2S)-2-Cyclopentyl-2-hydroxy-2-thien-2-ylacetoxy]-1-(3-o-tolyloxypropyl)1-azoniabicyclo[2.2.2]octane trifluoroacetate], the inhibition at 0.1 µM amounted to 72.8% and the inhibition at 0.01 µM came to 46.7%.
The like results for `O=C(O[C@H]1C[N+]2(CCc3ccccc3)CCC1CC2)[C@@](O)(c1cccs1)C1CCCC1` [Example 56, (3R)-3-[(2R)-2-Cyclopentyl-2-hydroxy-2-thien-2-ylacetoxy]-1-phenethyl-1-azoniabicyclo[2.2.2]octane trifluoroacetate] were, in that order, 77.3% and 53.8%.
On to `O=C(O[C@H]1C[N+]2(CCOc3ccccc3)CCC1CC2)[C@](O)(c1cccs1)C1CCCC1` [Example 24, (3R)-3-[(2S)-2-Cyclopentyl-2-hydroxy-2-thien-2-ylacetoxy]-1-(2-phenoxyethyl)-1-azoniabicyclo[2.2.2]octane bromide], for which the inhibition at 0.1 µM was 78% and the inhibition at 0.01 µM is 56.6%.
Consider `O=C(O[C@H]1C[N+]2(CCCc3cccs3)CCC1CC2)[C@@](O)(c1ccco1)C1CCCC1` [Example 61, (3R)-3-[(2S)-2-Cyclopentyl-2-fur-2-yl-2-hydroxyacetoxy]-1-(3-thien-2-ylpropyl)-1-azoniabicyclo[2.2.2]octane trifluoroacetate], for which the inhibition at 0.1 µM is 75.1% and the inhibition at 0.01 µM was found to be 39.9%.
In the same order, the values of `O=C(O[C@H]1C[N+]2(CCc3ccccc3)CCC1CC2)[C@](O)(c1cccs1)C1CCCC1` [Example 25, (3R)-3-[(2S)-2-Cyclopentyl-2-hydroxy-2-thien-2-ylacetoxy]-1-phenethyl-1-azoniabicyclo[2.2.2]octane trifluoroacetate] are 76.1% and 62.6%.
The like results for `O=C(O[C@H]1C[N+]2(CCc3ccccc3)CCC1CC2)[C@](O)(c1ccco1)C1CCCCC1` [Example 80, (3R)-3-[(2R)-2-Cyclohexyl-2-fur-2-yl-2-hydroxyacetoxy]-1-phenethyl-1-azoniabicyclo[2.2.2]octane trifluoroacetate] were, in that order, 72.4% and 55.8%.
The like results for `O=C(O[C@H]1C[N+]2(CCc3ccccc3)CCC1CC2)[C@](O)(c1ccccc1)C1CCCC1` [Example 83, (3R)-3-[(2R)-2-Cyclopentyl-2-hydroxy-2-phenylacetoxy]-1-phenethyl-1-azoniabicyclo[2.2.2]octane trifluoroacetate] were, in that order, 72.7% and 60.3%.
For the compound `O=C(O[C@H]1C[N+]2(CCCc3ccccc3)CCC1CC2)[C@@](O)(c1cccs1)C1CCCC1` [Example 57, (3R)-3-[(2R)-2-Cyclopentyl-2-hydroxy-2-thien-2-ylacetoxy]-1-(3-phenylpropyl)-1-azoniabicyclo[2.2.2]octane trifluoroacetate], the inhibition at 0.1 µM is 77.4% and the inhibition at 0.01 µM stood at 47.1%.
The like results for `COc1ccc(OCCC[N+]23CCC(CC2)[C@@H](OC(=O)[C@](O)(c2cccs2)C2CCCC2)C3)cc1` [Example 44, (3R)-3-[(2S)-2-Cyclopentyl-2-hydroxy-2-thien-2-ylacetoxy]-1-[3-(4-methoxyphenoxy)propyl]-1-azoniabicyclo[2.2.2]octane trifluoroacetate] were, in that order, 84.6% and 44.6%.
The like results for `O=C(O[C@H]1C[N+]2(CCCOc3ccc(F)cc3)CCC1CC2)[C@](O)(c1cccs1)C1CCCC1` [Example 28, (3R)-3-[(2S)-2-Cyclopentyl-2-hydroxy-2-thien-2-ylacetoxy]-1-[3-(4-fluorophenoxy)propyl]-1-azoniabicyclo[2.2.2]octane trifluoroacetate] were, in that order, 78.3% and 60.6%.
The like results for `O=C(O[C@H]1C[N+]2(CCc3ccccc3)CCC1CC2)[C@](O)(c1cccs1)C1CCCCC1` [Example 89, (3R)-3-[(2S)-2-Cyclohexyl-2-hydroxy-2-thien-2-ylacetoxy]-1-phenethyl-1-azoniabicyclo[2.2.2]octane trifluoroacetate] were, in that order, 68.5% and 51.3%.
In the case of `O=C(O[C@H]1C[N+]2(CCCOc3ccccc3)CCC1CC2)[C@](O)(c1cccs1)C1CCCCC1` [Example 88, (3R)-3-[(2S)-2-Cyclohexyl-2-hydroxy-2-thien-2-ylacetoxy]-1-(3-phenoxypropyl)-1-azoniabicyclo[2.2.2]octane trifluoroacetate], the inhibition at 0.1 µM is 65.5% and the inhibition at 0.01 µM came to 35.7%.
